Source: patent US8871735B2, “Methods and compositions for providing cardiac protection” (University of Medicine and Dentistry of New Jersey, priority 2008, dated 2014)
Entries after “also recorded” stand apart in the source; their conditions may differ. Read-outs that look alike come from different tables or passages of the source.

Legend:
cardiac myocytes [1] = experiment: ISO-stimulated cAMP accumulation in cultured cardiac myocytes; assay type: cell-based, mouse; settings: 10 μM compound
AC5 [2] = target: T1, AC5 (Mus musculus, UniProt P84309); experiment: Acute ISO, milrinone or carbachol challenge in mice chronically infused with Ara-Ade; assay type: in vivo
AC5 [3] = experiment: as above; assay type: in vivo, mouse; settings: 0.05 μg/kg IV ISO, AC5Tg
ERK/MEK/Bcl-2 pathway = experiment: Western blot of hearts after chronic ISO infusion; assay type: in vivo, mouse
Experimental: The activities of MEK1 and ERK1/2 signaling pathway were examined by measuring the phosphorylated and total forms.
Western blotting was conducted with commercially available antibodies, except for type 5 and type 6 AC. Western blotting for type 5 and 6 AC was performed as previously described. Protein expression was quantified by densitometry.

[4] = tested on: C57Bl/6 mice motor function; experiment: Rotarod performance test and pole test; assay type: in vivo, mouse; settings: mouse
Experimental: In C57Bl/6 mice, Ara-Ade was chronically infused with an osmotic mini-pump at the indicated doses for 5 days. a) Each mouse was placed on a rod subjected to evaluate Rotarod performance. Mice were left for 1 min on the rod for habituation. The rod rotated gradually increasing from 4 to 40 rpm over the course of 5 min, and the time that mice could stay without failing was recorded. Five trials were conducted for each individual 10-25 min apart. As a positive control, 1-methyl 4-phenyl 1,2,3,6-tetrahydropyridine (MPTP) was intraperitoneally injected for the indicated dose for 5 days. *, p<0.01 relative to vehicle. #, p<0.05 relative to vehicle. n=6-7. b) To evaluate bradykinesia, a pole test was performed. Mice were placed head upward on the top of a rough surfaced pole that was wrapped with gauze to prevent slipping. The time until the mouse turned completely downward (open bars, TTURN) and the time until it climbed down to the floor (closed bars, TLA) were measured.
Four days after the implantation, Rotarod performance test and pole test were examined as previously described. For MPTP injection (1-methyl 4-phenyl 1,2,3,6-tetrahydropyridine), mice were injected intraperitoneally (i.p.) with 0.1 mL of PBS or MPTP dissolved in PBS at 24-hour intervals for 5 days. The daily dose of MPTP was 30 mg/kg. […]

AC6 = experiment: Forskolin-stimulated cAMP production in heart membrane preparations from AC6Tg; assay type: biochemical, mouse; settings: forskolin 50 μM
cardiac myocytes [5] = experiment: ISO-induced apoptosis in cultured cardiac myocytes (DNA fragmentation ELISA); assay type: cell-based; settings: 100 μM ISO, 48 h
Experimental: Cultured cardiac myocytes were incubated with 100 μM ISO in the presence or absence of AC5 inhibitors at the indicated concentrations for 48 h.

[6] = cited from earlier work
AC5 [7] = target: T1, AC5; experiment: Forskolin-stimulated cAMP production in heart membrane preparations from AC5Tg; settings: forskolin 50 μM
Experimental: (§1) Hearts and striatum were dissected from the mice and membrane preparations were made as previously described. This crude membrane preparation was used in the AC assay. AC activity was measured by a modification of the method of Salomon et al. as previously described. […] Double-reciprocal plots were examined as previously described.

[8] = tested on: C57BL/6 mice, CAO 30 min / CAR; experiment: Mouse ischemia and reperfusion model; assay type: in vivo
Experimental: Mice were divided into three different groups. Group I was administered AC5 inhibitor chronically for three weeks prior to CAO for 30 minutes followed by CAR for 24 hours. Group II was administered the AC5 inhibitor by i.v. infusion for 5 minutes immediately prior to CAO for 30 minutes followed by CAR for 24 hours. Group III was administered the AC5 inhibitor by i.v. infusion for 5 minutes immediately following CAO for 30 minutes and during CAR for 24 hours. Vehicle controls were included for all three treatment groups.
3-4 month old male C57BL/6 mice purchased from Jackson Laboratory were anesthetized by an injection of 2% 2,2,2-tribromomethanol (0.66 mg/g i.p.; Aldrich Chemical, St. Louis, Mo.). The mice were then orally intubated and mechanically ventilated. The heart was accessed via a thoracotomy at the fourth intercostals space and 7-0 silk suture passed under the left anterior descending coronary artery (LAD) at the point where it emerged from under the left atrial flap. Myocardial ischemia was achieved by occluding the LAD against a 22-gauge J-shaped stainless steel probe and verified by visually noting the regional akinesis and blanching of the left ventrical. The chest was closed in layers, with the long end of the probe remaining outside the chest wall, allowing the animal to be removed from the ventilator. After 30 min. of ischemia, reperfusion was initiated by carefully pulling the probe out form the ligature and then removing it from the chest cavity. Following the surgical procedure, the mouse was allowed to recover on a warmed surface, with supplemental oxygen delivered from a nose cone. I/R were verified by three lead electrocardiograms, which were obtained preoperatively, at the end of the ischemic interval and immediately after the initiation of reperfusion. Mice fully recovered from the surgical procedure were returned to standard animal housing conditions. The mice were under either 24 hrs of reperfusion followed by sacrifice and dual staining of the heart with TTC and Alcian Blue or kept for 4 weeks to study the heart failure progression. For the long term study post ischemia and reperfusion, the animals underwent echocardiography recording at 4 days, 2 weeks and 4 weeks after reperfusion.

[9] = tested on: mice, chronic ISO infusion; experiment: Treadmill exercise tolerance after chronic ISO; assay type: in vivo, mouse
Experimental: Treadmill exercise tolerance was performed as previously described. One week after pump implantation, pumps were removed under anesthesia. The next day after removal, mice were placed on a custom-built four-lane treadmill with an infrared detection system above the shock stimulus at a starting speed of 2 m/min. Every two minutes, the speed was increased by 4 m/min for 16 min or until the mouse could no longer run.

H9C2 cells = experiment: cAMP accumulation in H9C2 cells; assay type: cell-based; settings: 5 μM ISO, 3 minutes, 10 μM drug
Excerpt: […] Fludarabine ((+)-2-Fluoro-9-(5-O-phosphono-β-D-arabinofuranosyl)-9H-purin-6-amine) and Cladribine (2-chloro-2′-deoxyadenosine) are anti-cancer drugs, Adefovir (Bis(2,2-dimethylpropanoyloxymethyl)[2-(6-amino-9H-purin-9-yl)ethoxymethyl]phosphonate) and Zidovudine are anti-HIV drugs. Zidovudine-TP is a metabolite of zidovudine which inhibits virus replication. TP; triphosphate. 3-Deazaadenosine, Formycin A (7-Amino-3-(β-D-ribofuranosyl)-1H-pyrazolo[4,3-d]pyrimidine), 2-Far (2-Fluoroadenosine), formycin A ((2S,3R,4S,5R)-2-(7-amino-2H-pyrazolo[5,4-e]pyramidin-3-yl-5-(hydroxymeth-yl)oxolane-3,4-diol), 2-FD (2-Fluoro-2′-deoxyadenosine) and 2′5′ ddAdo (2′5′-dideoxyadenosine) are experimental drugs.
Mice were anesthetized with 2.5% tribromoethanol (0.010 to 0.015 mL per gram of body weight) injected intraperitoneally, and echocardiography was performed with ultrasonography (ACUSON Sequoia C256, Siemens Medical Solutions, Malvern, Pa.). For acute injection of isoproterenol, forskolin and milrinon, a PE-10 catheter was inserted into the right jugular vein, and drugs were injected at the rate of 1 μl/s. cAMP accumulation assay in H9C2 cells, a cardiac myoblast cell line, was examined as previously described.

[10] = tested on: Yorkshire pigs, CAO / CAR; experiment: Pig ischemia and reperfusion model; assay type: in vivo
Experimental: Yorkshire pigs were under anesthesia and instrumented in accordance with established procedures. After 4 days of recovery, the pigs were subjected to ischemia and reperfusion also in accordance with established procedures. At 3 hours of coronary artery reperfusion, the animals were sacrificed and the infarct size was measures with TTC staining.

[11] = tested on: mice after coronary occlusion; experiment: Coronary occlusion (post-MI) survival and echocardiography; assay type: in vivo, mouse
Experimental: Ara-Ade (50 mg/kg/day) was chronically infused with mini-osmotic pumps implanted subcutaneously 2-3 days before the coronary occlusion. […] (b) Echocardiography was performed at 16 days after coronary occlusion.

Water solubility = assay type: physicochemical
type 5 AC = type 5 AC (Homo sapiens, UniProt O95622); experiment: Double-reciprocal plots of type 5 AC catalytic activity against ATP
Experimental: as §1

[12] = administration of 15 mg/kg/day; read-out: plasma Cmax; cited from earlier work
[13] = 30 min CAO, 24 hr CAR, vehicle 36%

T1 sequence (P84309 whole entry, the tested form may be a part): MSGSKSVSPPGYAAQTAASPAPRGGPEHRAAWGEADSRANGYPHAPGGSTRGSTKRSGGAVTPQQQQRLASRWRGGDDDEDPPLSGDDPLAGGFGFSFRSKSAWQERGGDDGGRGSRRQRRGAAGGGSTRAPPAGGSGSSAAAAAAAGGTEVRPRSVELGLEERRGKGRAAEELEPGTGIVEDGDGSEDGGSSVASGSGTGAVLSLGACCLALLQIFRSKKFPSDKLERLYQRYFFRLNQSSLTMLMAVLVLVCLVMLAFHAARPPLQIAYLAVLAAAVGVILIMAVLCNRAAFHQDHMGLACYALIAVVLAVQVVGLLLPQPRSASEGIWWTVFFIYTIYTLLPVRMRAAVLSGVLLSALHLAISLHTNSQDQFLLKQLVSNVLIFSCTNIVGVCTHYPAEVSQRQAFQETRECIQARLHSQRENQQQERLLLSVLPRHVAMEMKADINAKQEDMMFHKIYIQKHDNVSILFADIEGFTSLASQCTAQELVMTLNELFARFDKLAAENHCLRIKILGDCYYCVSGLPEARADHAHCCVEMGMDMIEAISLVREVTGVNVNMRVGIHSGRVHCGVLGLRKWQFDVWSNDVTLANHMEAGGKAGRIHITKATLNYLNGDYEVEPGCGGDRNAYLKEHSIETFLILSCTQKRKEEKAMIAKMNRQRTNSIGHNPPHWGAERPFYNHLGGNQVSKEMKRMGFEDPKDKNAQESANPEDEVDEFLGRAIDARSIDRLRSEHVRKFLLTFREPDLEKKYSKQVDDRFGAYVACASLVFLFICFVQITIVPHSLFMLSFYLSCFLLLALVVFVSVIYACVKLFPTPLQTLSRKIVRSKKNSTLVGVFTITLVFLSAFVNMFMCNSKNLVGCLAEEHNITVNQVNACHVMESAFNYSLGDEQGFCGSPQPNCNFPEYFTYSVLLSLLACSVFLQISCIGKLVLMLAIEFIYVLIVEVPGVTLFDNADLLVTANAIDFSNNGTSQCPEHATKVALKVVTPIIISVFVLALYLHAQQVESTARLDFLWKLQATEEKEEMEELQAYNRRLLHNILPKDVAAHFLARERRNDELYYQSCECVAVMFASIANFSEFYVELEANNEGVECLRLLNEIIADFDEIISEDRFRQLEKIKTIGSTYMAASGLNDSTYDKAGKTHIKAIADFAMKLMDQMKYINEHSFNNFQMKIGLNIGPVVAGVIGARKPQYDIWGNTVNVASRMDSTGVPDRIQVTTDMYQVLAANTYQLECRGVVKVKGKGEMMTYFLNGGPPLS
Sequence of type 5 AC (O95622 whole entry): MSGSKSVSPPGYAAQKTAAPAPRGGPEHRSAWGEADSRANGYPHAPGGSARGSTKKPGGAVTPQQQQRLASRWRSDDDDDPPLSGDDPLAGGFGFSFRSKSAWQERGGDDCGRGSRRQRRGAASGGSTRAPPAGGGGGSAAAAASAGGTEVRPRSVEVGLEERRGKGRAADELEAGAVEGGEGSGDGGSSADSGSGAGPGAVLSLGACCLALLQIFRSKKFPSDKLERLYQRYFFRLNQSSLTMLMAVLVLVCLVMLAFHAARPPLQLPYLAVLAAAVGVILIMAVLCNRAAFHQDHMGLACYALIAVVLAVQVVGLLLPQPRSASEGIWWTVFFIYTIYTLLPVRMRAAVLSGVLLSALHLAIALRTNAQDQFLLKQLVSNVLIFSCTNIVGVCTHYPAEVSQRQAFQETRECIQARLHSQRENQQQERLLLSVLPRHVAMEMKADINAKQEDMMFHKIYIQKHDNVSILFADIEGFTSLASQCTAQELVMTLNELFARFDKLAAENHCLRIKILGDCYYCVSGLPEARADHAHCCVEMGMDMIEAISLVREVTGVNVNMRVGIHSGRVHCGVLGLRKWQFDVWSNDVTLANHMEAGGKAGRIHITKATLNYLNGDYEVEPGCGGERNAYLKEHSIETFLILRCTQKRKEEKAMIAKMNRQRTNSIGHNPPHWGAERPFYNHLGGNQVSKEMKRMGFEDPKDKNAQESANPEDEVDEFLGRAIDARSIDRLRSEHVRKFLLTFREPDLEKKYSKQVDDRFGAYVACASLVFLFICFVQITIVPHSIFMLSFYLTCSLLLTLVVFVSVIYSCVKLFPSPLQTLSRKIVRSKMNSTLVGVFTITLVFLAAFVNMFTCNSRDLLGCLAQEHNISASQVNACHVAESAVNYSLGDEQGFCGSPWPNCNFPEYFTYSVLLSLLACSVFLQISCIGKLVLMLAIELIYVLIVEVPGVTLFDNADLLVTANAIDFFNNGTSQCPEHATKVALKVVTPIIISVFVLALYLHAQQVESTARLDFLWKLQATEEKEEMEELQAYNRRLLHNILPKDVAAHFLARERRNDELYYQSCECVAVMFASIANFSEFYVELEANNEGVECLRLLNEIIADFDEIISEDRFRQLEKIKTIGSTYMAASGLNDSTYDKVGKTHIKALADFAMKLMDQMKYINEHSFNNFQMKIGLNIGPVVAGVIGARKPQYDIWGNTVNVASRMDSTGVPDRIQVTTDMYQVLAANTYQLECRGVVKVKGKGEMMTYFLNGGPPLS

In the case of `Nc1ncnc2c1ncn2[C@@H]1O[C@H](CO)[C@@H](O)[C@@H]1O` [Ara-Ade, 9-β-D-arabinofuranosyladenine], the “decrease in ISO-induced cAMP production / accumulation in cultured cardiac myocytes” value (cardiac myocytes [1]) is reported as 20%, the “difference in LVEF between vehicle and Ara-Ade in WT” value (AC5 [2]; 0.05 μg/kg IV ISO, WT) is reported as “no significant difference” and the “LVEF after ISO vs vehicle” value (AC5 [2]; Ara-Ade 20 mg/kg/day chronically infused, 0.25 μg/kg IV ISO) is reported as “lower”. For the same compound, the “LVEF elevation by milrinone, vehicle vs Ara-Ade group” value (AC5 [2]; milrinone infusion) was “no significant difference”, the “decrease in HR by carbachol” value (AC5 [2]; vehicle vs Ara-Ade) was “greater in vehicle than Ara-Ade” and the “difference in LVEF between vehicle and Ara-Ade in AC5Tg” value (AC5 [3]) was “significant”. The “phosphorylation of Bcl-2” value (ERK/MEK/Bcl-2 pathway) was “significantly increased”, the “phosphorylation of ERK1/2 and MEK” value (ERK/MEK/Bcl-2 pathway) was “increased” and the “BBB-permeability (concluded from motor tests)” value [4] was “little BBB-permeability”. The “inhibition of cAMP production, heart membrane preparation from AC6Tg” value (AC6) was “little inhibitory effect”, the “ISO-induced apoptosis in cultured cardiac myocytes” value (cardiac myocytes [5]) was “completely abolished” and the “effective concentration in inhibiting apoptosis” value (cardiac myocytes [5]; FIG. 3d) was 10 µM. For the same compound, the Cmax ([6]; 10 mg/kg, intravenously infusion for 30 min, read-out: Cmax in human) was 4.8 µM, the Cmax ([6]; human, intravenous infusion 10 mg/kg, read-out: plasma Cmax) was 4.8 µM and the “inhibition of cAMP production, heart membrane preparation from AC5Tg” value (AC5 [7]) was “inhibited cAMP production”. The “arterial pressure and heart rate” value [8] was “did not reduce arterial pressure and reflexly increase heart rate”, the “infarct size, drug administered before CAO or CAR” value [8, 13] was 21% and the “infarct size, drug delivered at CAR” value [8, 13] was 16%. The “development of heart failure after ischemia and reperfusion” value ([8]; i.v. infusion after CAO, during or after reperfusion) was “prevented development of heart failure”, the “maximum velocity in the treadmill test” value [9] was “rescued ISO-induced decrease in the maximum velocity” and the “inhibition of cAMP accumulation in H9C2 cells” value (H9C2 cells) was “slight inhibition”. For the same compound, the “infarct size in chronically instrumented conscious pigs” value ([10]; delivered after CAR) was “reduced infarct size”, the “reactive hyperemia in pigs” value ([10]; pig, in vivo) was “inhibited reactive hyperemia” and the “LVEF after MI” value ([11]; 16 days after coronary occlusion) was “prevented decrease in LVEF”. For the same compound, the “survival rate after coronary occlusion” value ([11]; Ara-Ade 50 mg/kg/day from 2-3 days before occlusion, chi-square at 16 days) was “significant increase in survival rate”, the water solubility (Water solubility) was “poorly water-soluble” and the “mode of inhibition with respect to ATP” value (type 5 AC) was “non-competitive; also recorded: un-competitive or non-competitive”. The Cmax [12] was about 10 µM.
